Earlier results on six compounds are cited in patent publication EP3125915B1, “PROCESS FOR PREPARING A POWDERED MIXTURE OF BORNEOL AND PLANT PROTEINS TO BE USED AS DIETARY OR FOOD SUPPLEMENT, AND RELATED DIETARY OR FOOD SUPPLEMENT” (priority 2014, dated 2015).

Like-named read-outs stand apart in the source and are kept apart here.

The conditions of series [1]: with borneol.
Assay in series [2]: not given
This is another data set of the same source.

For series [3] the following is noted: with borneol. This is another data set of the same source.
Assay in series [4]: not given
This is another data set of the same source.

For series [5] the following is noted: with borneol. The source holds these as a separate data set.
The conditions of series [6]: with borneol. This is another data set of the same source.

As to `Cc1nc(C)c(C)nc1C.O=P(O)(O)O` [TMPP, tetramethylpyrazine phosphate], the “oral bioavailability of TMPP in brain tissue, times increased than that without borneol” value (oral borneol 15 mg kg^-1) is listed as 1.12 times; the “oral bioavailability of TMPP in brain tissue, times increased than that without borneol” value (oral borneol 30 mg kg^-1) was 1.62 times; the “oral bioavailability of TMPP in brain tissue, times increased than that without borneol” value (oral borneol 90 mg kg^-1) was 1.93 times. Moreover, the “oral bioavailability of TMPP in mice plasma, times increased than that without borneol” value is listed as 1.52 times (oral borneol 15 mg kg^-1), 2.21 times (oral borneol 30 mg kg^-1) and 2.95 times (oral borneol 90 mg kg^-1).

As for `NC(=O)N1c2ccccc2C=Cc2ccccc21` [carbamazepine], the bioavailability of carbamazepine entry in series [1] is on record as “significantly improve”.

For the compound `OCc1ccc(O[C@@H]2O[C@H](CO)[C@@H](O)[C@H](O)[C@H]2O)cc1` [gastrodin], the results for the “peak time of gastrodin in the plasma” value in series [2] (administration of gastrodin alone) and in series [2] (gastrodin co-administrated with borneol) were 30 min and 5 to 15 min, respectively. In series [2] (gastrodin co-administrated with borneol, compared with gastrodin alone), the “bioavailability of gastrodigenin in the brain was increased by” value is 33.6-108.8%.

In the case of `COC(=O)C1=CO[C@@H](O[C@@H]2O[C@H](CO)[C@@H](O)[C@H](O)[C@H]2O)[C@@H]2C(CO)=CC[C@H]12` [geniposide], the permeability of geniposide result in series [3] (cortex and striatum regions) is listed as “no change”; in series [3] (hippocampus and hypothalamus regions) it was “increase”. Besides, the “brain delivery of geniposide” value in series [4] (borneol high dose increasing from 2.0 g/kg to 4.0 g/kg) is “decreased”. The “delivery of geniposide in the rat brain” value in series [4] (borneol low dose range of 0.05-2.0 g/kg) is “increases”.

As for `Cc1ncc(CNC(=O)N(CCCl)N=O)c(N)n1` [nimustine], in series [5], the “bioavailability of nimustine in the CSF” value is on record as “increase”.

In the case of `O=c1c(O)c(-c2ccc(O)c(O)c2)oc2cc(O)cc(O)c12` [quercetin], in series [6], the “absorption of quercetin in mice brain tissue” value was “improves”.
